From patent publication US11850235B2, “Preventative effect of mebendazole against malignancies in neurofibromatosis” (priority 2021, dated 2023)

Tests used:
[1] = test system: NPcis (cis Nf1+/-; Tp53+/-) mice; assay: Chemoprevention in NPcis mice (tumor onset, survival, cause of death); type: in vivo; conditions: for effect on survival of non-solid malignancy-related and unknown causes of death / effect on overall median survival vs controls / overall median survival: NPcis mice; for effect on survival of non-solid malignancy-related and unknown causes of death: male and female; for effect on overall median survival vs controls: treatment from day 60; for overall median survival: MBZ 195 mg/kg feed, CXB 1000 ppm feed, SUL 160 ppm drinking water; for increase in median survival: 195 mg/kg feed
Excerpt: NPcis (cis Nf1+/−; Tp53+/−) mice in C57BL/6 background (B6;129S2-Trp53tm1Tyj Nf1tm1Tyj/J) were bred by pairing male heterozygous NPcis mice with the female wildtype mice to better generate MPNST animals. Since homozygous Nf1/Tp53 KO mice are embryonically lethal, only heterozygous and wildtype pups were born. Like NF1 patients, NPcis mice spontaneously develop predominantly soft tissue sarcomas including MPNSTs (genetically engineered murine (GEM) PNSTs) and malignant Triton tumors, as well as rhabdomyosarcomas and astrocytomas that severely limit their life expectancy to ˜5 months. The addition of heterozygous Tp53 knock-out (KO) accelerates the cancer development, which mimics the secondary mutations required for the transformation to malignancies such as MPNST, where the second copy of Nf1 is also lost due to the loss of heterozygosity (LOH).
(§1) At day 60 after birth, heterozygous mice were started on the medicated feed or water. The mouse diet consisting of 45 kcal % fat containing soybean oil and lard for fat was used as the control feed. […] Sulindac was added to drinking water at 160 ppm (0.5 mg/day) in 4 mM sodium phosphate buffer as previously described. Animals were palpated weekly for tumors and survival and cause of death were recorded.
In order to investigate the tumor-preventative effects of MBZ, continuous oral administration of MBZ via 195 mg/kg feed was initiated at 60 days after birth, before the formation of any malignancies. Mice were palpated weekly for the presence of any tumors. For the purpose of this study, ‘Solid Malignancies’ were defined as any type of sarcoma and astrocytoma, in addition to neuroblastomas and carcinomas, while ‘Others’ included non-solid malignancies such as lymphomas, leukemias and unknown causes of death.

sNF96.2 cells = assay: Cell proliferation assay (Cell Counting Kit-8), sNF96.2; type: cell-based; conditions: Homo sapiens, 72 h
Description: (§2) The human NF1-associated MPNST cell line NF90.8 was privately provided and sNF96.2 was purchased from the American Type Culture Collection. […] These cell lines were not authenticated. All cells were tested and found free of mycoplasma contamination. A cell proliferation assay was performed using Cell Counting Kit-8. Cells in 100 μL media in a 96-well plate were incubated with 10 μL of WST-8, a tetrazolium salt, at 37° C. in a tissue culture incubator. Absorbance was measured at 450 nm. Half maximal inhibitory concentrations (IC50s) were determined by incubating cells at a range of concentrations for 72 h and were calculated using the log (inhibitor) vs. response function and non-linear fit. Human MPNST cells NF90-8 and sNF96.2, both derived from NF1 patients, were treated with various MBZ concentrations for 72 h. […] Because NF1-associated tumors are mainly driven by Ras hyperactivation, MBZ's ability to inhibit Ras activity in the NF90-8 cell line was studied by exposing NF90-8 cells to different concentrations of MBZ (0.2 and 1 μM) for 24 h. […] This confirmed the Ras inhibitory effect of MBZ in vitro.

[2] = test system: GTP-bound Ras in NF90-8 cells; assay: Ras activity assay (Active Ras Detection Kit, GST-Raf1-RBD pull-down); type: cell-based, human; conditions: 0.2 and 1 μM, 24 h
Description: A Ras activity assay was performed according to the manufacturer's instructions for the Active Ras Detection Kit. Briefly, cells were lysed with the Lysis/Binding/Wash buffer and pelleted, then the supernatant was used as the cell lysate. In the positive control, 5 μL of 10 mM GTPγS was added to 500 μL of lysates and incubated at 30° C. for 15 min. Cell lysates were incubated with glutathione resin, together with the purified GST-Raf1-RBD protein at 4° C. for 1 h in a spin cup. The resin was washed, and the bound proteins were eluted by incubating with dithiothreitol (DTT)-containing sample buffer at RT for 2 min. Eluted samples were heated and analyzed by anti-Ras Western blotting. Human MPNST cells NF90-8 and sNF96.2, both derived from NF1 patients, were treated with various MBZ concentrations for 72 h. […] Because NF1-associated tumors are mainly driven by Ras hyperactivation, MBZ's ability to inhibit Ras activity in the NF90-8 cell line was studied by exposing NF90-8 cells to different concentrations of MBZ (0.2 and 1 μM) for 24 h. […] This confirmed the Ras inhibitory effect of MBZ in vitro.

NF90-8 cells = assay: Cell proliferation assay (Cell Counting Kit-8), NF90-8; type: cell-based; conditions: Homo sapiens, 72 h
Description: as §2

[3] = Dose-dependent toxicity of medicated feed in NPcis mice; type: in vivo
Description: as §1
This range was calculated based on previously established maximal dose of 50 mg/kg MBZ via oral gavage and the estimated daily food intake of a mouse. Mice were weighed weekly and examined for signs of toxicity over 4 weeks.

pERK = assay: Immunohistochemistry of pERK1/2 and ERK1/2 in tumors of NPcis mice; type: in vivo; conditions: sarcomas of NPcis mice, 195 mg/kg diet
Description: Mouse tumors were first fixed by formalin and embedded in paraffin. For hematoxylin & eosin (H&E) staining, the section was de-paraffinized and stained by the standard hematoxylin and eosin procedure to visualize tissue structures. For immunostaining, rabbit anti-Erk1/2 and anti-pErk1/2 antibodies were used. Sections were de-paraffinized using a standard procedure and blocked using 1.9% H2O2 in methanol at room temperature for 10 min. Sections were heated at 100° C. for 20 min in the antigen retrieval citrate solution and blocked by the serum-free protein blocker for 5 min at room temperature. After incubation with the rabbit anti-Erk1/2 or anti-pErk1/2 antibody diluted at 1:50 overnight at 4° C., biotin-conjugated anti-rabbit IgG was applied for 20 min at room temperature, followed by washing and incubation with streptavidin peroxidase for 15 min at room temperature. Antibody binding was visualized by the 3,3′-Diaminobenzidine (DAB) chromogen system. Subsequently, sections were counterstained by hematoxylin. Immunohistochemistry (IHC) quantification of representative tumor tissue sections was carried out with open source software using JPEG files. Mean optical density (OD) was calculated as the log average (maximal intensity/mean intensity) after image processing with color deconvolution and background subtraction. […]

[4] = 195 mg/kg feed from day 60, solid malignancies, male and female combined

## CC1=C(CC(=O)O)c2cc(F)ccc2/C1=C\c1ccc([S+](C)[O-])cc1 (stereo not shown) [SUL, sulindac]
[1]
  effect on survival of non-solid malignancy-related and unknown causes of death: neither SUL nor CXB had an effect
  effect on overall median survival vs controls: failed to demonstrate any effect
  overall median survival: 171.5 days

## COC(=O)Nc1nc2ccc(C(=O)c3ccccc3)cc2[nH]1 [MBZ, mebendazole]
sNF96.2 cells
  IC50: 320 nM
[2]
  activated form of GTP-bound Ras: reduced in MBZ-treated NF90-8 cells in a concentration-dependent manner
NF90-8 cells
  IC50: 180 nM
[3]; 195 mg/kg feed, started 60 days after birth, male and female
  tolerability of long-term daily continuous administration: well tolerated
[3]; 250 and 215 mg/kg diets, over 4 weeks
  signs of toxicity: excessive toxicity
[3]; 250 and 215 mg/kg diets, over 4 weeks, male and female NPcis mice
  weight loss: 10-15%
pERK
  ERK staining, mean intensity: 0.07
pERK; three tumor samples
  pERK DAB staining, mean optical density (OD): 0.02
[1]; [4]
  delay of tumor occurrence and median mortality vs control: 32 days
  tumor occurrence and median mortality: 192 days
[1]
  effect on survival of non-solid malignancy-related and unknown causes of death: did not affect
  effect on overall median survival vs controls: significantly increased
  overall median survival: 199 days
[1]; female mice, solid malignancies
  increase in median survival: 14 days
[1]; male mice, solid malignancies
  increase in median survival: 34.5 days
[1]; vs control NPcis mice
  reduction in solid cancer-related causes of death: ~25%
